Assay results published in the kinase profiling compilation of Christmann-Franck et al. (2016).
Blank lines part the entries; values can stand above or below the compound they belong to.

Assays:
Experiment in all cases: radiometric filter-binding kinase assay
[1] = molecular target: CHEK1 (human) (UniProt O14757)
[2] = molecular target: TTK (human) (UniProt P33981)
[3] = molecular target: MINK1 (human) (UniProt Q8N4C8)
[4] = molecular target: MAPK10 (human) (UniProt P53779)
[5] = molecular target: CDK2 CCNA2 (human) (UniProt P20248+P24941)
[6] = molecular target: AURKB (human) (UniProt Q96GD4)
Chain of AURKB (human) (Q96GD4 whole entry, looked up): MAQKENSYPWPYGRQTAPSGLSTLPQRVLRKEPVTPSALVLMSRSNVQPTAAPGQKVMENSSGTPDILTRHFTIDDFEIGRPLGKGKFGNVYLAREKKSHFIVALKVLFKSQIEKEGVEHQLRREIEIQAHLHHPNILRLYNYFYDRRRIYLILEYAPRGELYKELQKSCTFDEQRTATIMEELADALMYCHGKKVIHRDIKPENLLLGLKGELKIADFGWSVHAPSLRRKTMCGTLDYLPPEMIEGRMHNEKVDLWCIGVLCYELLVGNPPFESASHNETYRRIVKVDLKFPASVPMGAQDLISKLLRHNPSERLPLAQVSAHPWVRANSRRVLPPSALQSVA

[7] = molecular target: SRC (human) (UniProt P12931)
[8] = system: AKT1 (human), P31749 [S473D]
[9] = molecular target: DYRK3 (human) (UniProt O43781)
[10] = molecular target: TBK1 (human) (UniProt Q9UHD2)
[11] = system: LCK (mouse); settings: accession and sequence are those of the human protein
[12] = system: ROCK2 (rat); settings: accession and sequence are those of the human protein
[13] = molecular target: EPHA2 (human) (UniProt P29317)
Chain of EPHA2 (human) (P29317 whole entry, looked up): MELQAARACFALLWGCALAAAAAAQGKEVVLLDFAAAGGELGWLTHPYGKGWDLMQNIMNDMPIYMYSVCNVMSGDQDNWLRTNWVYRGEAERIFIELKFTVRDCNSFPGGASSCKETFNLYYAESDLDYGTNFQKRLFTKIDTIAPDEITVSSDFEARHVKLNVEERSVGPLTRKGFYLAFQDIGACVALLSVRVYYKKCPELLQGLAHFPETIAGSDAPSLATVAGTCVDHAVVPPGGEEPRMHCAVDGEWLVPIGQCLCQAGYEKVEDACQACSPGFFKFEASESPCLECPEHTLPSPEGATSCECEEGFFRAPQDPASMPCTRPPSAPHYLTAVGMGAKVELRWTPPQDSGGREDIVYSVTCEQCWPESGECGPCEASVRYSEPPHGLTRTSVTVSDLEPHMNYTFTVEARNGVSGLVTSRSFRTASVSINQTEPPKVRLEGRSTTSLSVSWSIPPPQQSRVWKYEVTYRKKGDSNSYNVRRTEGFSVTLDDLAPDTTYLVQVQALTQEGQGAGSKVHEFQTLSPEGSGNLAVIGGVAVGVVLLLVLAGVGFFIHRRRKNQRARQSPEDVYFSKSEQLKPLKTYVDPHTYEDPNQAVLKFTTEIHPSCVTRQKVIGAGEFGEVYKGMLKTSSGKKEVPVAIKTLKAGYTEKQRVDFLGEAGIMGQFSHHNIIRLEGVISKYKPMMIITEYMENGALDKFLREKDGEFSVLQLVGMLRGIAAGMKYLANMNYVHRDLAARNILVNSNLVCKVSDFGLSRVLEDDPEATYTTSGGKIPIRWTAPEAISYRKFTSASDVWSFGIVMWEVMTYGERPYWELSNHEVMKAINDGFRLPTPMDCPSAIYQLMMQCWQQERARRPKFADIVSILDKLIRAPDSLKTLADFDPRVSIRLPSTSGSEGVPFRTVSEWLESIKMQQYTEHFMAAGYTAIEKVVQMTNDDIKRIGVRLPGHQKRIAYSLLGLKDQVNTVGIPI

[14] = molecular target: MAPK8 (human) (UniProt P45983)
[15] = molecular target: MST4 (human) (UniProt Q9P289)
[16] = molecular target: EPHB3 (human) (UniProt P54753)
[17] = molecular target: EPHA4 (human) (UniProt P54764)
[18] = molecular target: TAOK1 (human) (UniProt Q7L7X3)
[19] = molecular target: PAK4 (human) (UniProt O96013)
[20] = molecular target: CaMK1 (human) (UniProt Q14012)
[21] = molecular target: CHEK2 (human) (UniProt O96017)
[22] = molecular target: MAP2K1 (human) (UniProt Q02750)
[23] = molecular target: EPHB2 (human) (UniProt P29323)
Chain of EPHB2 (human) (P29323 whole entry, looked up): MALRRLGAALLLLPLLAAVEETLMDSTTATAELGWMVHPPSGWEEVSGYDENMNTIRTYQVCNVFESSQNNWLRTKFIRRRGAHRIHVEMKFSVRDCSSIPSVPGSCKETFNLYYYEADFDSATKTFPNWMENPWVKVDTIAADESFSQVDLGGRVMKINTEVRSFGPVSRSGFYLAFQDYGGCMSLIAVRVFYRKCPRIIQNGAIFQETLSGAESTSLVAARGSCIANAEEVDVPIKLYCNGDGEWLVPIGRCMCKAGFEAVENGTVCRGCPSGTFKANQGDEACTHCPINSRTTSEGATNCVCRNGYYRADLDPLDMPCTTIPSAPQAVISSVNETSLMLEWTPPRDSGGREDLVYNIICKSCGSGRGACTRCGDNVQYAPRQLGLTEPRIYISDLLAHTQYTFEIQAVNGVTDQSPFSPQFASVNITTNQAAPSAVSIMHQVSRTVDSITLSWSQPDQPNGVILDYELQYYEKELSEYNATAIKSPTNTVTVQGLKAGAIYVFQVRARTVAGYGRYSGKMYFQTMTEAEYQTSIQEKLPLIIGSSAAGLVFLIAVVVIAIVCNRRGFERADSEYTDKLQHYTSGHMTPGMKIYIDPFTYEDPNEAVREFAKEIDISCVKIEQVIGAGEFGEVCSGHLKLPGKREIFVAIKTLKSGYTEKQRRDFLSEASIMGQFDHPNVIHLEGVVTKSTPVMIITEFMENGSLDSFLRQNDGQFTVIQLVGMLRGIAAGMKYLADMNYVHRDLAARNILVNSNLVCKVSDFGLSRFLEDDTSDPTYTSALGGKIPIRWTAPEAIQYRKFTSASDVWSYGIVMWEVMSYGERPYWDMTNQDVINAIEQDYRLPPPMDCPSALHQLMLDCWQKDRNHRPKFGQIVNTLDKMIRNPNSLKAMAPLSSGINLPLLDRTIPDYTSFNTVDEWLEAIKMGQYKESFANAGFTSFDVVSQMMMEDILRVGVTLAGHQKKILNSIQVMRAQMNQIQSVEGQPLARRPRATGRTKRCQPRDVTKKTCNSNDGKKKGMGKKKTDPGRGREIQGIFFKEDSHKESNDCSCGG

[24] = molecular target: PAK6 (human) (UniProt Q9NQU5)
[25] = molecular target: EPHB1 (human) (UniProt P54762)
Chain of EPHB1 (human) (P54762 whole entry, looked up): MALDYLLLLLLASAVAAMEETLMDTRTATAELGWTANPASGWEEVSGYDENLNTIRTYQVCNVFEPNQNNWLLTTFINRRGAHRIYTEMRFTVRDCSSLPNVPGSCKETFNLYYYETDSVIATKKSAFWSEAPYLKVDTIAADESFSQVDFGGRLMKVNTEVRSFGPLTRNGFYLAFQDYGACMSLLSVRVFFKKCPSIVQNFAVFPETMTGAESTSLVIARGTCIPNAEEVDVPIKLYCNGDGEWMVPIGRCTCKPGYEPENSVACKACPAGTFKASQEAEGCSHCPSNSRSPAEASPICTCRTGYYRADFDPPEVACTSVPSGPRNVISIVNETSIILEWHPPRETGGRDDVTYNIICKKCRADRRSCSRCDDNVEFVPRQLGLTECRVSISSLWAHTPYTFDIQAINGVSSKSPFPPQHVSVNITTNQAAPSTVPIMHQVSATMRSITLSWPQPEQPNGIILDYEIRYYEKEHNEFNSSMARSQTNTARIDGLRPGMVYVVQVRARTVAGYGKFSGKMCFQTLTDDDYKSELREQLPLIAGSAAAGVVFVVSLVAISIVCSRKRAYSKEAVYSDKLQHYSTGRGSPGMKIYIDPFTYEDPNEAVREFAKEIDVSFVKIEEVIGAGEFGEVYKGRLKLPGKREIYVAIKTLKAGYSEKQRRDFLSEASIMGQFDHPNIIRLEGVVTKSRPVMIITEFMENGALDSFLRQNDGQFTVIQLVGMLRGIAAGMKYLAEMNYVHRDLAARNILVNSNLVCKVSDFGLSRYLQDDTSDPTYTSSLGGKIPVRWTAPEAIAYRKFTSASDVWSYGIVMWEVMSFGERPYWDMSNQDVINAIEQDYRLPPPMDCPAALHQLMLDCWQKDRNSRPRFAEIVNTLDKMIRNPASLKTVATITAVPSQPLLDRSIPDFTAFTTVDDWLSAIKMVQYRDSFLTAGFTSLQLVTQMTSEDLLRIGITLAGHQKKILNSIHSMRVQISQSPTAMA

[26] = molecular target: RPS6KA3 KD1 KD2 (human) (UniProt P51812)
[27] = molecular target: MAP3K7 TAB1 (human) (UniProt Q15750+O43318)
[28] = system: PAK2 (human), Q13177 [T402E]
[29] = molecular target: MARK2 (human) (UniProt Q7KZI7)
[30] = molecular target: CSK (human) (UniProt P41240)
[31] = molecular target: PKN2 (human) (UniProt Q16513)
[32] = molecular target: IKBKB (human) (UniProt O14920)
Chain of IKBKB (human) (O14920 whole entry, looked up): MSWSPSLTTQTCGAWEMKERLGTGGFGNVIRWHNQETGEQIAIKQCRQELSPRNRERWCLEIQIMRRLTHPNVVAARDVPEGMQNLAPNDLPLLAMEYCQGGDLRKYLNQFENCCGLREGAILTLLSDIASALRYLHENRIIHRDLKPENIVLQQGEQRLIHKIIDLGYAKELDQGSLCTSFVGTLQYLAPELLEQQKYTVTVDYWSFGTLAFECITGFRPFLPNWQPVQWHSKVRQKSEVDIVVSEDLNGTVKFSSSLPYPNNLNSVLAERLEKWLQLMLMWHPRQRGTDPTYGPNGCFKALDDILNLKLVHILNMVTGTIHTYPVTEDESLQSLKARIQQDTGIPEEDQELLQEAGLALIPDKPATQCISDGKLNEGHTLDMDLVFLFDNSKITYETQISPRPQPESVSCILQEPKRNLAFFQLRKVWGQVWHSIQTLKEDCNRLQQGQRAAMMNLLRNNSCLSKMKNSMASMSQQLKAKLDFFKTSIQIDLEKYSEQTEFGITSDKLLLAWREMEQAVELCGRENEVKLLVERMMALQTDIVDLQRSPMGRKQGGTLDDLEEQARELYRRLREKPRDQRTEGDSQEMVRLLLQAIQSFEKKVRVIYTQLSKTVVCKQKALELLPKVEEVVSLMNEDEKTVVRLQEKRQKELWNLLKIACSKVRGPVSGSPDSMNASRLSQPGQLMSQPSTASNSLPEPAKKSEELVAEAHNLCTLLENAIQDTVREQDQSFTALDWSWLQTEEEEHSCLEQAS

[33] = molecular target: NUAK1 (human) (UniProt O60285)
[34] = molecular target: GCK (human) (UniProt Q12851)
Chain of GCK (human) (Q12851 whole entry, looked up): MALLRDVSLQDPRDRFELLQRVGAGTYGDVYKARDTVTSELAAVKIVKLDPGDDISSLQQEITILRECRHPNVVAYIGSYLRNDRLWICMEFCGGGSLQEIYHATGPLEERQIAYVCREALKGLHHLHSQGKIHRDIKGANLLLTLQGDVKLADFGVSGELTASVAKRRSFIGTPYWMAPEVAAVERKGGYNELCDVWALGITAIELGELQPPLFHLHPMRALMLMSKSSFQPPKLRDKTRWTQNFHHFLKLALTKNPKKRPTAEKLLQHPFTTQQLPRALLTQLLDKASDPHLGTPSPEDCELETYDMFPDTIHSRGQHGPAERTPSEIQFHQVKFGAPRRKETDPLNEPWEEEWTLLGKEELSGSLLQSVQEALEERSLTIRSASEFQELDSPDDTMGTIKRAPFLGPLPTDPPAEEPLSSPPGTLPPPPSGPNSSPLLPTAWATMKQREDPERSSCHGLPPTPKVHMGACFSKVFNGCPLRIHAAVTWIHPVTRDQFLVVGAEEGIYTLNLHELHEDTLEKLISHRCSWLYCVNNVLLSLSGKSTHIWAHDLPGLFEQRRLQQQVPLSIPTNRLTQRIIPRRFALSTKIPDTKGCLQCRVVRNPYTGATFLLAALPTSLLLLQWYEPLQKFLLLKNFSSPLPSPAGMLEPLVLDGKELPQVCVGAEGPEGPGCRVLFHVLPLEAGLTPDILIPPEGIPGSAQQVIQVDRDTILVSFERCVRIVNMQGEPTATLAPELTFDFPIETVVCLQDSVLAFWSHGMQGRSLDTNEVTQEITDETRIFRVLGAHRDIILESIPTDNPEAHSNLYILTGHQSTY

[35] = molecular target: MYLK (human) (UniProt Q15746)
[36] = molecular target: MAP3K11 (human) (UniProt Q16584)

residual activity ([1]; compound 0.1 µM): 114% | residual activity ([1]; compound 1.0 µM): 92% | residual activity ([2]; compound 0.1 µM): 104% | residual activity ([2]; compound 1.0 µM): 91% | residual activity ([3]; compound 0.1 µM): 101% | residual activity ([3]; compound 1.0 µM): 83% | residual activity ([4]; compound 0.1 µM): 107% | residual activity ([4]; compound 1.0 µM): 90% | residual activity ([5]; compound 0.1 µM): 119% | residual activity ([5]; compound 1.0 µM): 88% | residual activity ([6]; compound 0.1 µM): 94% | residual activity ([6]; compound 1.0 µM): 74% | residual activity ([7]; compound 0.1 µM): 106% | residual activity ([7]; compound 1.0 µM): 43% | residual activity ([8]; compound 0.1 µM): 111% | residual activity ([8]; compound 1.0 µM): 91% | residual activity ([9]; compound 0.1 µM): 94% | residual activity ([9]; compound 1.0 µM): 101% | residual activity ([10]; compound 0.1 µM): 105% | residual activity ([10]; compound 1.0 µM): 102% | residual activity ([11]; compound 0.1 µM): 78% | residual activity ([11]; compound 1.0 µM): 30% | residual activity ([12]; compound 0.1 µM): 116% | residual activity ([12]; compound 1.0 µM): 83% | residual activity ([13]; compound 0.1 µM): 99% | residual activity ([13]; compound 1.0 µM): 55% | residual activity ([14]; compound 0.1 µM): 90% | residual activity ([14]; compound 1.0 µM): 52% | residual activity ([15]; compound 0.1 µM): 129% | residual activity ([15]; compound 1.0 µM): 72% | residual activity ([16]; compound 0.1 µM): 111% | residual activity ([16]; compound 1.0 µM): 100% | residual activity ([17]; compound 0.1 µM): 91% | residual activity ([17]; compound 1.0 µM): 46% | residual activity ([18]; compound 0.1 µM): 103% | residual activity ([18]; compound 1.0 µM): 66% | residual activity ([19]; compound 0.1 µM): 94% | residual activity ([19]; compound 1.0 µM): 81% | residual activity ([20]; compound 0.1 µM): 88% | residual activity ([20]; compound 1.0 µM): 105% | residual activity ([21]; compound 0.1 µM): 110% | residual activity ([21]; compound 1.0 µM): 87% | residual activity ([22]; compound 0.1 µM): 13% | residual activity ([22]; compound 1.0 µM): 2% | residual activity ([23]; compound 1.0 µM): 75% | residual activity ([24]; compound 0.1 µM): 100% | residual activity ([24]; compound 1.0 µM): 87% | residual activity ([25]; compound 0.1 µM): 99% | residual activity ([25]; compound 1.0 µM): 81% | residual activity ([26]; compound 0.1 µM): 106% | residual activity ([26]; compound 1.0 µM): 70% | residual activity ([27]; compound 0.1 µM): 5% | residual activity ([27]; compound 1.0 µM): 3% | residual activity ([28]; compound 0.1 µM): 104% | residual activity ([28]; compound 1.0 µM): 110% | residual activity ([29]; compound 0.1 µM): 109% | residual activity ([29]; compound 1.0 µM): 114% | residual activity ([30]; compound 0.1 µM): 118% | residual activity ([30]; compound 1.0 µM): 56% | residual activity ([31]; compound 0.1 µM): 102% | residual activity ([31]; compound 1.0 µM): 91% | residual activity ([32]; compound 0.1 µM): 102% | residual activity ([32]; compound 1.0 µM): 95% | residual activity ([33]; compound 0.1 µM): 113% | residual activity ([33]; compound 1.0 µM): 78% | residual activity ([34]; compound 0.1 µM): 121% | residual activity ([34]; compound 1.0 µM): 80% | residual activity ([35]; compound 0.1 µM): 108% | residual activity ([35]; compound 1.0 µM): 80% | residual activity ([36]; compound 0.1 µM): 114% | residual activity ([36]; compound 1.0 µM): 79%
Compound: COc1cc(O)c2c(c1)/C=C/C[C@H](O)[C@H](O)C(=O)/C=C\C[C@H](C)OC2=O

residual activity ([1]; compound 0.1 µM): 74% | residual activity ([1]; compound 1.0 µM): 88% | residual activity ([2]; compound 0.1 µM): 83% | residual activity ([2]; compound 1.0 µM): 77% | residual activity ([3]; compound 0.1 µM): 92% | residual activity ([3]; compound 1.0 µM): 69% | residual activity ([4]; compound 0.1 µM): 15% | residual activity ([4]; compound 1.0 µM): 16% | residual activity ([5]; compound 0.1 µM): 85% | residual activity ([5]; compound 1.0 µM): 72% | residual activity ([6]; compound 0.1 µM): 74% | residual activity ([6]; compound 1.0 µM): 73% | residual activity ([7]; compound 0.1 µM): 93% | residual activity ([7]; compound 1.0 µM): 72% | residual activity ([8]; compound 0.1 µM): 92% | residual activity ([8]; compound 1.0 µM): 104% | residual activity ([9]; compound 0.1 µM): 81% | residual activity ([9]; compound 1.0 µM): 79% | residual activity ([10]; compound 0.1 µM): 77% | residual activity ([10]; compound 1.0 µM): 79% | residual activity ([11]; compound 0.1 µM): 95% | residual activity ([11]; compound 1.0 µM): 101% | residual activity ([12]; compound 0.1 µM): 89% | residual activity ([12]; compound 1.0 µM): 71% | residual activity ([13]; compound 0.1 µM): 110% | residual activity ([13]; compound 1.0 µM): 125% | residual activity ([14]; compound 0.1 µM): 9% | residual activity ([14]; compound 1.0 µM): 4% | residual activity ([15]; compound 0.1 µM): 98% | residual activity ([15]; compound 1.0 µM): 104% | residual activity ([16]; compound 0.1 µM): 101% | residual activity ([17]; compound 0.1 µM): 92% | residual activity ([17]; compound 1.0 µM): 105% | residual activity ([18]; compound 0.1 µM): 96% | residual activity ([19]; compound 0.1 µM): 84% | residual activity ([19]; compound 1.0 µM): 66% | residual activity ([20]; compound 0.1 µM): 87% | residual activity ([20]; compound 1.0 µM): 92% | residual activity ([21]; compound 0.1 µM): 89% | residual activity ([21]; compound 1.0 µM): 73% | residual activity ([22]; compound 0.1 µM): 98% | residual activity ([22]; compound 1.0 µM): 113% | residual activity ([23]; compound 0.1 µM): 101% | residual activity ([23]; compound 1.0 µM): 103% | residual activity ([24]; compound 0.1 µM): 87% | residual activity ([24]; compound 1.0 µM): 103% | residual activity ([25]; compound 0.1 µM): 93% | residual activity ([25]; compound 1.0 µM): 86% | residual activity ([26]; compound 0.1 µM): 80% | residual activity ([26]; compound 1.0 µM): 80% | residual activity ([27]; compound 0.1 µM): 67% | residual activity ([27]; compound 1.0 µM): 39% | residual activity ([28]; compound 0.1 µM): 102% | residual activity ([28]; compound 1.0 µM): 93% | residual activity ([29]; compound 0.1 µM): 94% | residual activity ([29]; compound 1.0 µM): 85% | residual activity ([30]; compound 1.0 µM): 103% | residual activity ([31]; compound 0.1 µM): 99% | residual activity ([31]; compound 1.0 µM): 92% | residual activity ([32]; compound 0.1 µM): 76% | residual activity ([32]; compound 1.0 µM): 63% | residual activity ([33]; compound 0.1 µM): 35% | residual activity ([33]; compound 1.0 µM): 82% | residual activity ([34]; compound 0.1 µM): 45% | residual activity ([34]; compound 1.0 µM): 20% | residual activity ([35]; compound 0.1 µM): 96% | residual activity ([35]; compound 1.0 µM): 85% | residual activity ([36]; compound 0.1 µM): 79% | residual activity ([36]; compound 1.0 µM): 59%
Compound: CN(C)C/C=C/C(=O)Nc1cccc(C(=O)Nc2ccc(Nc3nccc(-c4cccnc4)n3)cc2)c1
